Series [1] has as its system Pb_KLK2×Hi-Myc mice. In kind it is in vivo. As for the experimental part: A final clinical simulation involved non-invasive imaging of the impact of different degrees of inhibition on AR activity in the tumor (intratumoral) and prostate itself (intraprostatic). Progression of disease was initially monitored in 14 Pb_KLK2 XHi-Myc mice using ^89Zr-11B6 PET. Thereafter, mice were randomized into 3 treatment groups: vehicle (n=4), castration (n=6), or castration plus Enzalutamide (n=4).
PET imaging experiments were conducted on a micro-PET Focus 120 scanner (Concorde Microsystems). In initial studies, mice (n=4) were administered formulations of ^89Zr-11B6 [3.7-5.55 MBq (100-150 μCi), 300, 100, 50, or 25 μg of protein, in 150 μL sterile saline for injection] through i.v. Tail-vein injection. Approximately 5 minutes before recording PET images, mice were anesthetized by inhalation of 1% to 2% isoflurane (Baxter Healthcare)/oxygen gas mixture and placed on the scanner bed. PET images were recorded at various time points between 1 and 344 hours post-injection. […] For all static images, scan time was adjusted to ensure between 15-25 million coincident events were recorded.
Site-directed mutagenesis of APLILSR to APLRTKR at positions […], -3, and -2 the zymogen sequence of KLK2 was performed using a Quick Change Lightning Mutagenesis Kit (Stratagene). […] Mice were monitored closely in accordance with IACUC-established guidelines and RARC animal protocol (#04-01-002).

Series [2] relates to VCaP. Kind of series: 18F-FDHT imaging in VCaP bearing mouse. In kind it is in vivo. Conditions: 1.5 h after administration. As for the experimental part:
The distribution at 1.5 h after administration in a representative VCaP (arrow) bearing mouse. ^18F-FDHT is a radiolabeled analog of the non-aromatizable dihydrotestosterone.

Square brackets hold non-standard residues; d marks the D form. Peptide text beside a SMILES is read from it. * marks the point of attachment. dPhe(4-NHCONH2) = NC(=O)Nc1ccc(C[C@@H](N)C(=O)O)cc1; Dihydroorotyl(S) = O=C1C[C@@H](C(=O)*)NC(=O)N1; dPhe(4-Cl) = N[C@H](Cc1ccc(Cl)cc1)C(=O)O; Phe(4-NH2) = Nc1ccc(C[C@H](N)C(=O)O)cc1; d2Nal = N[C@H](Cc1ccc2ccccc2c1)C(=O)O; Lys(iPr) = CC(C)NCCCC[C@H](N)C(=O)O; d3Pal = N[C@H](Cc1cccnc1)C(=O)O

In the case of `CC(=O)N[C@H](Cc1ccc2ccccc2c1)C(=O)N[C@H](Cc1ccc(Cl)cc1)C(=O)N[C@H](Cc1cccnc1)C(=O)N[C@@H](CO)C(=O)N[C@@H](Cc1ccc(NC(=O)[C@@H]2CC(=O)NC(=O)N2)cc1)C(=O)N[C@H](Cc1ccc(NC(N)=O)cc1)C(=O)N[C@@H](CC(C)C)C(=O)N[C@@H](CCCCNC(C)C)C(=O)N1CCC[C@H]1C(=O)N[C@H](C)C(N)=O` [Degarelix] (Ac-[d2Nal][dPhe(4-Cl)][d3Pal]S[Phe(4-NH2)](Dihydroorotyl(S))[dPhe(4-NHCONH2)]L[Lys(iPr)]P[dA]-NH2), in series [1] (depot injections, androgen ablation for 2 months), the “^89Zr-11B6 uptake (AR pathway readout) during GnRH antagonist therapy” value is “decreased following castration but reemerged at the end of the treatment period”. For `CNC(=O)c1ccc(N2C(=S)N(c3ccc(C#N)c(C(F)(F)F)c3)C(=O)C2(C)C)cc1F` [Enzalutamide], the “reactivation of ^89Zr-11B6 uptake (AR activity) after castration plus adjuvant androgen receptor blockade” value in series [1] (castration plus Enzalutamide, n=4) is recorded as “not significant”. Turning to `CC12CCC(=O)CC1CCC1C2CCC2(C)C(O)C([18F])CC12` (stereo not drawn) [^18F-FDHT], in series [2], the “Liver, bile and kidney uptake relative to tumor uptake” value is reported as “equivalent to or exceeds tumor uptake”.
